In ChEMBL document CHEMBL1201862, “PubChem BioAssay data set” (2004):
Structures can show the parent of a compound that is named as a salt.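 Grown in 96-well plates, cells were treated for 48 hours with each compound at five concentrations. Insufficient inhibition: endpoint recorded as highest concentration tested. GI50 = concentration required for 50% inhibition of growth.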 Active and inactive are the calls of the source. Cut-off read from the data, not from the text of the source: active = GI50 up to about 1.1 µM and inactive = higher.

Key:
Assay in all cases: NCI tumour cell line growth inhibition, 48 h
[1] = test system: 786-0
[2] = test system: A498
[3] = test system: A549
[4] = test system: ACHN
[5] = test system: BT-549
[6] = test system: CAKI-1
[7] = test system: CCRF-CEM
[8] = test system: COLO 205
[9] = test system: DU-145
[10] = test system: EKVX
[11] = test system: HCC 2998
[12] = test system: HCT-116
[13] = test system: HCT-15
[14] = test system: HL-60
[15] = test system: HOP-62
[16] = test system: HOP-92
[17] = test system: HT-29
[18] = test system: Hs-578T
[19] = test system: IGROV-1
[20] = test system: K562
[21] = test system: KM12
[22] = test system: LOX IMVI
[23] = test system: M14
[24] = test system: MCF7
[25] = test system: MDA-MB-231
[26] = test system: MDA-MB-435
[27] = test system: MDA-N
[28] = test system: MOLT-4
[29] = test system: Malme-3M
[30] = test system: NCI-H226
[31] = test system: NCI-H23
[32] = test system: NCI-H460
[33] = test system: NCI-H522
[34] = test system: OVCAR-3
[35] = test system: OVCAR-5
[36] = test system: OVCAR-8
[37] = test system: PC-3
[38] = test system: RPMI-8226
[39] = test system: RXF 393
[40] = test system: SF-268
[41] = test system: SF-295
[42] = test system: SF-539
[43] = test system: SK-MEL-28
[44] = test system: SK-MEL-2
[45] = test system: SK-MEL-5
[46] = test system: SK-OV-3
[47] = test system: SN12C
[48] = test system: SNB-19
[49] = test system: SNB-75
[50] = test system: SR
[51] = test system: SW-620
[52] = test system: T47D
[53] = test system: TK-10
[54] = test system: U-251
[55] = test system: UACC-257
[56] = test system: UACC-62
[57] = test system: UO-31
[58] = test system: NCI/ADR-RES
[59] = test system: OVCAR-4

O=C(O)c1cccc(S(=O)(=O)NN2C(=O)CSC2c2ccc(Cl)cc2Cl)c1 (centres undefined)
GI50 [1]: 16 µM (inactive)
GI50 [2]: > 100 µM (inactive)
GI50 [3]: > 100 µM (inactive)
GI50 [4]: > 100 µM (inactive)
GI50 [5]: 29.1 µM (inactive)
GI50 [6]: > 100 µM (inactive)
GI50 [7]: 9.75 µM (inactive)
GI50 [8]: > 100 µM (inactive)
GI50 [9]: > 100 µM (inactive)
GI50 [10]: 68.5 µM (inactive)
GI50 [11]: > 100 µM (inactive)
GI50 [12]: 28.7 µM (inactive)
GI50 [13]: 30.2 µM
GI50 [14]: 12 µM (inactive)
GI50 [15]: 44.9 µM (inactive)
GI50 [16]: > 100 µM (inactive)
GI50 [17]: 32.5 µM (inactive)
GI50 [18]: 19 µM (inactive)
GI50 [19]: > 100 µM (inactive)
GI50 [20]: 24 µM (inactive)
GI50 [21]: 41.7 µM (inactive)
GI50 [22]: 34.2 µM (inactive)
GI50 [23]: 34.5 µM (inactive)
GI50 [24]: 32.1 µM (inactive)
GI50 [25]: 43.5 µM (inactive)
GI50 [26]: 21.2 µM (inactive)
GI50 [27]: 24.7 µM (inactive)
GI50 [28]: 28.8 µM (inactive)
GI50 [29]: 82.4 µM (inactive)
GI50 [30]: 35.4 µM (inactive)
GI50 [31]: 40.2 µM (inactive)
GI50 [32]: 41.3 µM (inactive)
GI50 [33]: 24.7 µM (inactive)
GI50 [34]: 36.1 µM (inactive)
GI50 [35]: > 100 µM (inactive)
GI50 [36]: 15.4 µM (inactive)
GI50 [37]: 94.2 µM (inactive)
GI50 [38]: 97.3 µM (inactive)
GI50 [39]: 37.2 µM (inactive)
GI50 [40]: 36.2 µM (inactive)
GI50 [41]: 51.6 µM (inactive)
GI50 [42]: 19.5 µM (inactive)
GI50 [43]: 23.2 µM (inactive)
GI50 [44]: 32.3 µM (inactive)
GI50 [45]: > 100 µM (inactive)
GI50 [46]: > 100 µM (inactive)
GI50 [47]: 25.8 µM (inactive)
GI50 [48]: 49.5 µM (inactive)
GI50 [49]: 30.2 µM (inactive)
GI50 [50]: 17.6 µM (inactive)
GI50 [51]: 34.2 µM (inactive)
GI50 [52]: > 100 µM (inactive)
GI50 [53]: > 100 µM (inactive)
GI50 [54]: 21.4 µM (inactive)
GI50 [55]: 35.2 µM (inactive)
GI50 [56]: 28.6 µM (inactive)
GI50 [57]: > 100 µM (inactive)

Cc1ccc(O)c(-c2cc(-c3ccccc3)nc(/N=C\c3ccccc3)n2)c1
GI50 [1]: 32.5 µM (inactive)
GI50 [3]: 23.1 µM (inactive)
GI50 [4]: 13.1 µM (inactive)
GI50 [5]: 0.126 µM (active)
GI50 [7]: 18.6 µM (inactive)
GI50 [9]: > 100 µM (inactive)
GI50 [10]: 47.8 µM (inactive)
GI50 [12]: 28.4 µM (inactive)
GI50 [13]: 11.6 µM
GI50 [14]: 35.2 µM (inactive)
GI50 [15]: 18.1 µM (inactive)
GI50 [16]: 43.7 µM (inactive)
GI50 [17]: > 100 µM (inactive)
GI50 [18]: 25.3 µM (inactive)
GI50 [19]: 16.6 µM (inactive)
GI50 [20]: 45.6 µM (inactive)
GI50 [21]: 17.5 µM (inactive)
GI50 [22]: 21.8 µM (inactive)
GI50 [23]: > 100 µM (inactive)
GI50 [24]: 2.6 µM (inactive)
GI50 [25]: 77.3 µM (inactive)
GI50 [26]: > 100 µM (inactive)
GI50 [27]: 94.2 µM (inactive)
GI50 [28]: 18.2 µM (inactive)
GI50 [29]: > 100 µM (inactive)
GI50 [30]: 30.3 µM (inactive)
GI50 [31]: 24.4 µM (inactive)
GI50 [32]: 17.9 µM (inactive)
GI50 [33]: > 100 µM (inactive)
GI50 [58]: 21.5 µM (inactive)
GI50 [34]: 23.7 µM (inactive)
GI50 [59]: 31.4 µM (inactive)
GI50 [35]: > 100 µM (inactive)
GI50 [36]: 20.4 µM (inactive)
GI50 [37]: > 100 µM (inactive)
GI50 [40]: 21.9 µM (inactive)
GI50 [41]: 36.1 µM (inactive)
GI50 [42]: 29.6 µM (inactive)
GI50 [43]: > 100 µM (inactive)
GI50 [44]: 25.8 µM (inactive)
GI50 [45]: 31.5 µM (inactive)
GI50 [47]: 42.9 µM (inactive)
GI50 [48]: 29.8 µM (inactive)
GI50 [49]: 15.3 µM (inactive)
GI50 [50]: 59.4 µM (inactive)
GI50 [51]: > 100 µM (inactive)
GI50 [52]: 7.69 µM (inactive)
GI50 [53]: 97.1 µM (inactive)
GI50 [54]: 20.9 µM (inactive)
GI50 [55]: > 100 µM (inactive)
GI50 [56]: 8.17 µM (inactive)
GI50 [57]: 2.94 µM (inactive)

O=C(OCCN1CCCCCC1)C(c1ccsc1)C1CCCCC1 (centres undefined) [CETIEDIL CITRATE]
GI50 [1]: 16.5 µM (inactive)
GI50 [3]: 19.4 µM (inactive)
GI50 [4]: 17.1 µM (inactive)
GI50 [5]: 15.3 µM (inactive)
GI50 [6]: 14.5 µM (inactive)
GI50 [7]: 15.7 µM (inactive)
GI50 [8]: 10.5 µM (inactive)
GI50 [9]: 16.6 µM (inactive)
GI50 [10]: 17.1 µM (inactive)
GI50 [11]: 15.2 µM (inactive)
GI50 [12]: 14.1 µM (inactive)
GI50 [13]: 14.4 µM
GI50 [14]: 24.5 µM (inactive)
GI50 [15]: 15.1 µM (inactive)
GI50 [16]: 13.9 µM (inactive)
GI50 [17]: 11.9 µM (inactive)
GI50 [18]: 20.7 µM (inactive)
GI50 [19]: 11.1 µM (inactive)
GI50 [21]: 16.8 µM (inactive)
GI50 [22]: 17.1 µM (inactive)
GI50 [23]: 17.3 µM (inactive)
GI50 [24]: 16.7 µM (inactive)
GI50 [25]: 16.7 µM (inactive)
GI50 [26]: 16.9 µM (inactive)
GI50 [27]: 14 µM (inactive)
GI50 [28]: 21.4 µM (inactive)
GI50 [29]: 14.4 µM (inactive)
GI50 [31]: 18.5 µM (inactive)
GI50 [32]: 16.2 µM (inactive)
GI50 [58]: 15.7 µM (inactive)
GI50 [34]: 15 µM (inactive)
GI50 [35]: 17.3 µM (inactive)
GI50 [36]: 18.6 µM (inactive)
GI50 [37]: 18.4 µM (inactive)
GI50 [38]: 13.5 µM (inactive)
GI50 [40]: 17.6 µM (inactive)
GI50 [41]: 17.9 µM (inactive)
GI50 [42]: 16.8 µM (inactive)
GI50 [43]: 20.3 µM (inactive)
GI50 [46]: 16.9 µM (inactive)
GI50 [47]: 17.9 µM (inactive)
GI50 [48]: 18.7 µM (inactive)
GI50 [49]: 16.1 µM (inactive)
GI50 [50]: 26.6 µM (inactive)
GI50 [51]: 16.6 µM (inactive)
GI50 [52]: 3.28 µM (inactive)
GI50 [53]: 16 µM (inactive)
GI50 [54]: 17.2 µM (inactive)
GI50 [55]: 18.8 µM (inactive)
GI50 [57]: 13.3 µM (inactive)
